Target: recombinant human deoxyuridine nucleotidohydrolase (dUTPase) (Homo sapiens (Human), UniProt P33316)
Assay: fluorescence-based dUTPase inhibition assay
Type: biochemical
Details: for % relative inhibition vs. positive control: mean over three concentrations, typically 100, 50 and 25 μmol/L, compared to in-run positive control
From the text: Recombinant human deoxyuridine nucleotidohydrolase (dUTPase) is expressed and purified as described in Ladner R D, Carr S A, Huddleston M J, McNulty D E, Caradonna S J. J Biol Chem. 1996 Mar. 29; 271(13):7752-7. All drugs stocks are aliquoted and diluted as appropriate prior to use. The oligonucelotide primer, templates and fluorophore- and quencher-labeled detection probes are synthesized by Integrated DNA Technologies (Coralville, Iowa), subjected to polyacrylamide gel electrophoresis purification and reconstituted in Omnipur sterile nuclease-free water (EMD Chemicals USA, Gibbstown N.J.) at a stock concentration of 100 μmol/L. The two non-emissive (dark) quenching molecules incorporated into the detection probes include the Iowa black fluorescein quencher (IBFQ; absorption max 531 nm) and ZEN (non-abbreviation; absorption max 532 nm). The fluorescent label utilized is 6-FAM (5′-carboxyfluorescein; excitation max.=494 nm, emission max.=520 nm). Probes are further diluted to a working stock of 10 μmol/L and aliquoted to avoid repeated freeze/thaw cycles. AmpliTaq Gold DNA Polymerase, GeneAmp 10×PCR Buffer 2, MgCl2 and MicroAmp Optical 96-well Reaction Plates are purchased from Applied Biosystems (Carlsbad, Calif.). dNTPs are purchased individually at stock concentrations of 100 mmol/L from New England Biolabs at HPLC-certified >99% purity (Ipswich, Mass.).
Reaction mixtures contained primer, probe and template at an equimolar final concentration of 0.4 μmol/L. Magnesium chloride (MgCl2) is included at a final concentration of 2 mmol/L. Non-limiting dNTPs are included in the reaction mix in excess at a final concentration of 100 μmol/L (dUTP/dTTP is excluded). AmpliTaq Gold DNA polymerase is added at 0.875 U/reaction, 2.5 μl of 10×PCR buffer 2 added and nuclease-free ddH2O added to a final reaction volume of 25 μl. For dUTP inhibition analysis, the volume of ddH2O is further modified to accommodate an additional 1 μl of dUTPase (10 ng/μl) and 1 μl of inhibitor or DMSO control. Thermal profiling and fluorescence detection is performed using a customized thermal program on board a Roche Lightcycler LC480 Instrument II. For analysis of dNTPs, the thermal profile consisted of an 8 min 37° C. step followed by a 10 min 95° C. step to ‘hot-start’ the Taq polymerase and a primer extension time of up to 30 min at 60° C. Raw fluorescence spectra for 6-FAM is measured at specified time intervals to follow assay progression on board a Roche LightCycler 480 Software Version 1.5 and exported and analyzed in Microsoft Excel (Microsoft, Redmond Wash.) and Prism (GraphPad Software, La Jolla Calif.). Fluorescence values for blank reactions (limiting dNTP omitted) are subtracted to give normalized fluorescence units (NFU) to account for background fluorescence.
Test compounds are screened in a fluorescence-based assay. The assay employs a DNA polymerase-based approach utilizing an oligonucleotide template with 3 distinct regions: a 3′ primer binding region, a mid-template dUTP/thymidine triphosphate (TTP) detection region and a 5′ 6-[…] (FAM)-labeled probe binding region that incorporates a black hole quenching moiety. During the reaction, the probe and primer hybridize to the oligonucleotide template to form the template:primer:probe complex. When Taq polymerase binds to the primer in the TPP complex and dUTP is present, successful extension of the nascent strand occurs and the inherent 5′ to 3′ exonuclease activity of Taq polymerase cleaves and displaces the 6-FAM-labeled probe in a 5′ to 3′ direction, releasing the 6-FAM fluorophore from its proximity to the three quenchers. This displacement effectively disrupts the Förster resonance energy transfer (FRET) and the resulting fluorescence detected upon excitation is directly proportional to the amount of the dUTP available in the assay for incorporation. […]

recombinant human deoxyuridine nucleotidohydrolase (dUTPase), sequence (P33316 other isoform, or with tags, fused parts or gaps): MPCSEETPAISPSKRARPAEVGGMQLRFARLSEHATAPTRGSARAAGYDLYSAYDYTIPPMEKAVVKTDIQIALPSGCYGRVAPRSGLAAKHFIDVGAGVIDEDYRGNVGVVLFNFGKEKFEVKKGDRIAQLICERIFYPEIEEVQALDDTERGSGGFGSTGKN

Row | SMILES | IC50 | % relative inhibition vs. positive control
1 | C[C@@H](NS(=O)(=O)CCCCCN1CC(=O)NC1=O)c1ccc(F)c(OC[C@@H]2CCCN2C)c1 [Example 91, 5-(2,4-dioxoimidazolidin-1-yl)-N—((R)-1-(4-fluoro-3-(((S)-1-methylpyrrolidin-2-yl)methoxy)phenyl)ethyl)pentane-1-sulfonamide] | 150 µM | 1%
2 | C[C@H](c1ccc(F)c(OCC2CC2)c1)N(C)S(=O)(=O)CCCCCN1CC(=O)NC1=O [Example 92, (R)—N-(1-(3-(cyclopropylmethoxy)-4-fluorophenyl)ethyl)-5-(2,4-dioxoimidazolidin-1-yl)-N-methylpentane-1-sulfonamide] | 6.25 µM | 12%
3 | C[C@@H](NS(=O)(=O)CCCCCN1CC(=O)N(C(=O)OC(C)(C)C)C1=O)c1ccc(F)c(OCC2CC2)c1 [Example 93] | 3.75 µM | 20%
4 | C[C@@H](NS(=O)(=O)CCCCCN1CC(=O)NC1=O)c1ccc(F)c(OS(=O)(=O)C(F)(F)F)c1 [Example 94, (R)-5-(1-((5-(2,4-dioxoimidazolidin-1-yl)pentyl)sulfonamido)ethyl)-2-fluorophenyl trifluoromethanesulfonate] | 150 µM | 1%
5 | C[C@@H](NS(=O)(=O)CCCCCN1CC(=O)N(COCC[Si](C)(C)C)C1=O)c1ccc(F)c(OCC2CC2)c1 [Example 95, (R)—N-(1-(3-(cyclopropylmethoxy)-4-fluorophenyl)ethyl)-5-(2,4-dioxo-3-((2-(trimethylsilyl)ethoxy)methyl)-imidazolidin-1-yl)pentane-1-sulfonamide] | > 25 µM | 0%
6 | C[C@@H](NS(=O)(=O)CCCCCN1CC(=O)NC1=O)c1ccc(F)c(NCC2CC2)c1 [Example 96, (R)—N-(1-(3-((cyclopropylmethyl)amino)-4-fluorophenyl)ethyl)-5-(2,4-dioxoimidazolidin-1-yl)pentane-1-sulfonamide] | 4 µM | 19%
7 | [2H]C([2H])(Oc1cc([C@@H](C)NS(=O)(=O)CCCCCN2CC(=O)NC2=O)ccc1F)C1CC1 [Example 97, (R)—N-(1-(3-(cyclopropylmethoxy-d2)-4-fluorophenyl)ethyl)-5-(2,4-dioxoimidazolidin-1-yl)pentane-1-sulfonamide] |  | 182%
8 | C[C@@H](NS(=O)(=O)CCCCCN1CC(=O)NC1=O)c1ccc(F)c(OC2CCOCC2)c1 [Example 98, (R)-5-(2,4-dioxoimidazolidin-1-yl)-N-(1-(4-fluoro-3-((tetrahydro-2H-pyran-4-yl)oxy)phenyl)ethyl)pentane-1-sulfonamide] | 3 µM | 25%
9 | C[C@@H](NS(=O)(=O)CCCCCN1CC(=O)NC1=O)c1ccc(F)c(Oc2ccccc2)c1 [Example 99, (R)-5-(2,4-dioxoimidazolidin-1-yl)-N-(1-(4-fluoro-3-phenoxyphenyl)ethyl)pentane-1-sulfonamide] | 1.25 µM | 60%
10 | C[C@@H](NS(=O)(=O)CCCCCN1CC(=O)NC1=O)c1ccc(F)c(OCC2CCOCC2)c1 [Example 100, (R)-5-(2,4-dioxoimidazolidin-1-yl)-N-(1-(4-fluoro-3-((tetrahydro-2H-pyran-4-yl)methoxy)phenyl)ethyl) pentane-1-sulfonamide] | 14 µM | 5%
11 | C[C@@H](NS(=O)(=O)CCCCCN1CC(=O)NC1=O)c1ccc(F)c(OCC(=O)O)c1 [Example 101, (R)-2-(5-(1-((5-(2,4-dioxoimidazolidin-1-yl)pentyl)sulfonamido)ethyl)-2-fluorophenoxy)acetic acid] | 20 µM | 4%
12 | C[C@@H](NS(=O)(=O)CCCCCN1CC(=O)NC1=O)c1ccc(F)c(OCc2nn[nH]n2)c1 [Example 102, (R)—N-(1-(3-((2H-tetrazol-5-yl)methoxy)-4-fluorophenyl)ethyl)-5-(2,4-dioxoimidazolidin-1-yl)pentane-1-sulfonamide] | > 25 µM | 0%
13 | CC(C)C(NS(=O)(=O)CCCCCN1CC(=O)NC1=O)c1ccc(F)c(OCC2CC2)c1 (stereo not shown) [Example 103, N-(1-(3-(cyclopropylmethoxy)-4-fluorophenyl)-2-methylpropyl)-5-(2,4-dioxoimidazolidin-1-yl)pentane-1-sulfonamide] |  | 27%
14 | O=C1CN(CCCCCS(=O)(=O)NC(c2ccc(F)c(OCC3CC3)c2)C2CC2)C(=O)N1 (stereo not shown) [Example 104, N-(cyclopropyl (3-(cyclopropylmethoxy)-4-fluorophenyl)methyl)-5-(2,4-dioxoimidazolidin-1-yl) pentane-1-sulfonamide] |  | 57%
15 | O=C1CN(CCCCCS(=O)(=O)NC2CCc3c2ccc(F)c3OCC2CC2)C(=O)N1 (stereo not shown) [Example 105, N-(4-(cyclopropylmethoxy)-5-fluoro-2,3-dihydro-1H-inden-1-yl)-5-(2,4-dioxoimidazolidin-1-yl) pentane-1-sulfonamide] |  | 36%
16 | C[C@@H](NS(=O)(=O)CCn1ccc(N2CC(=O)NC2=O)n1)c1ccc(F)c(OCC2CC2)c1 [Example 106, (R)—N-(1-(3-(cyclopropylmethoxy)-4-fluorophenyl)ethyl)-2-(3-(2,4-dioxoimidazolidin-1-yl)-1H-pyrazol-1-yl)ethane-1-sulfonamide] | 150 µM | 1%
17 | C[C@@H](NS(=O)(=O)CC/C=C/CN1C(=O)NC(=O)C1(C)C)c1ccc(F)c(OCC2CC2)c1 [Example 112, (R,E)-N-(1-(3-(cyclopropylmethoxy)-4-fluorophenyl)ethyl)-5-(5,5-dimethyl-2,4-dioxoimidazolidin-1-yl)pent-3-ene-1-sulfonamide] |  | 50%
18 | CC(C)COc1cc([C@@H](C)NS(=O)(=O)CCC=CCN2C(=O)NC(=O)C2(C)C)ccc1F [Example 113, (R)-5-(5,5-dimethyl-2,4-dioxoimidazolidin-1-yl)-N-(1-(4-fluoro-3-isobutoxyphenyl)ethyl)pent-3-ene-1-sulfonamide] |  | 8%
19 | C[C@@H](NS(=O)(=O)CCOCCN1CC(=O)NC1=O)c1cccc(OCC2CC2)c1 [Example 114, (R)—N-(1-(3-(cyclopropylmethoxy)phenyl)ethyl)-2-(2-(2,4-dioxoimidazolidin-1-yl)ethoxy)ethane-1-sulfonamide] |  | 124%
20 | C[C@@H](NS(=O)(=O)CCCOCN1CC(=O)NC1=O)c1cccc(OCC2CC2)c1 [Example 115, (R)—N-(1-(3-(cyclopropylmethoxy)phenyl)ethyl)-3-((2,4-dioxoimidazolidin-1-yl)methoxy)propane-1-sulfonamide] |  | 164%
21 | CC(C)COc1cc([C@@H](C)NS(=O)(=O)CCCOCN2CC(=O)NC2=O)ccc1F [Example 116, (R)-3-((2,4-dioxoimidazolidin-1-yl)methoxy)-N-(1-(4-fluoro-3-isobutoxyphenyl)ethyl)propane-1-sulfonamide] |  | 173%
22 | O=C1CN(COCCCS(=O)(=O)NC2(c3ccc(F)c(OCC4CC4)c3)CC2)C(=O)N1 [compound 120, N-(1-(3-(cyclopropylmethoxy)-4-fluorophenyl)cyclopropyl)-3-((2,4-dioxoimidazolidin-1-yl)methoxy)propane-1-sulfonamide] |  | 172%

— US10858344B2, “Hydantoin containing deoxyuridine triphosphatase inhibitors” (CV6 Therapeutics (NI) Limited, priority 2016, dated 2020)
